Measurements as given in ChEMBL document CHEMBL1201862, “PubChem BioAssay data set” (2004).
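Each compound was tested at five concentrations against cells in 96-well plates for 48 hours. GI50: concentration for 50% inhibition of growth.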 The source made the active and inactive calls. No stated cut-off is given here; in the data, active = GI50 up to about 1.1 µM and inactive = higher.

Legend:
Experiment in all cases: inhibition of tumour cell growth, NCI panel, 48 h
[1] = test system: SN12C
[2] = test system: HL-60
[3] = test system: HCT-116
[4] = test system: IGROV-1
[5] = test system: OVCAR-5
[6] = test system: NCI-H460
[7] = test system: EKVX
[8] = test system: MCF7
[9] = test system: SR
[10] = test system: SW-620
[11] = test system: K562
[12] = test system: A549
[13] = test system: SNB-75
[14] = test system: MOLT-4
[15] = test system: A498
[16] = test system: HCC 2998
[17] = test system: MDA-N
[18] = test system: KM12
[19] = test system: SK-OV-3
[20] = test system: DU-145
[21] = test system: SF-295
[22] = test system: OVCAR-3
[23] = test system: NCI/ADR-RES
[24] = test system: U-251
[25] = test system: NCI-H23
[26] = test system: NCI-H226
[27] = test system: SK-MEL-28
[28] = test system: SK-MEL-5
[29] = test system: MDA-MB-231
[30] = test system: OVCAR-8
[31] = test system: MDA-MB-435
[32] = test system: BT-549
[33] = test system: CCRF-CEM
[34] = test system: HT-29
[35] = test system: LOX IMVI
[36] = test system: Hs-578T
[37] = test system: HOP-62
[38] = test system: SK-MEL-2
[39] = test system: NCI-H522
[40] = test system: ACHN
[41] = test system: UO-31
[42] = test system: SF-539
[43] = test system: SNB-19
[44] = test system: M14
[45] = test system: CAKI-1
[46] = test system: Malme-3M
[47] = test system: COLO 205
[48] = test system: UACC-62
[49] = test system: SF-268
[50] = test system: 786-0
[51] = test system: RPMI-8226
[52] = test system: T47D
[53] = test system: OVCAR-4
[54] = test system: PC-3
[55] = test system: RXF 393
[56] = test system: HOP-92
[57] = test system: HCT-15
[58] = test system: UACC-257
[59] = test system: TK-10

Compound: N#Cc1c(N)nc(SCc2ccccc2)c(C#N)c1-c1ccc(O)cc1
- GI50 [1]: 13.8 µM (inactive)
- GI50 [2]: 11.3 µM (inactive)
- GI50 [3]: 11.5 µM (inactive)
- GI50 [4]: 11 µM (inactive)
- GI50 [5]: 16.4 µM (inactive)
- GI50 [6]: 25.8 µM (inactive)
- GI50 [7]: 9.44 µM (inactive)
- GI50 [8]: 13.9 µM (inactive)
- GI50 [9]: 10.9 µM (inactive)
- GI50 [10]: 15.2 µM (inactive)
- GI50 [11]: 11 µM (inactive)
- GI50 [12]: 11.7 µM (inactive)
- GI50 [13]: 16.8 µM (inactive)
- GI50 [14]: 5.53 µM (inactive)
- GI50 [15]: 13.1 µM (inactive)
- GI50 [16]: > 38.5 µM (inactive)
- GI50 [17]: 13 µM (inactive)
- GI50 [18]: 11 µM (inactive)
- GI50 [19]: 15.5 µM (inactive)
- GI50 [20]: 13.5 µM (inactive)
- GI50 [21]: 13.6 µM (inactive)
- GI50 [22]: 14.6 µM (inactive)
- GI50 [23]: 15.7 µM (inactive)
- GI50 [24]: 13.9 µM (inactive)
- GI50 [25]: 15.9 µM (inactive)
- GI50 [26]: 22.4 µM (inactive)
- GI50 [27]: 13.4 µM (inactive)
- GI50 [28]: 11.7 µM (inactive)
- GI50 [29]: 12.3 µM (inactive)
- GI50 [30]: 15 µM (inactive)
- GI50 [31]: 11.6 µM (inactive)
- GI50 [32]: 11.6 µM (inactive)
- GI50 [33]: 13.4 µM (inactive)
- GI50 [34]: 8.22 µM (inactive)
- GI50 [35]: 16.6 µM (inactive)
- GI50 [36]: 29.2 µM (inactive)
- GI50 [37]: 15.2 µM (inactive)
- GI50 [38]: 15.2 µM (inactive)
- GI50 [39]: 12.6 µM (inactive)
- GI50 [40]: 13.2 µM (inactive)
- GI50 [41]: 1.81 µM (inactive)
- GI50 [42]: 19.5 µM (inactive)
- GI50 [43]: 17.3 µM (inactive)
- GI50 [44]: 14.2 µM (inactive)
- GI50 [45]: 13.5 µM (inactive)
- GI50 [46]: 15.3 µM (inactive)
- GI50 [47]: 15.6 µM (inactive)
- GI50 [48]: 15.7 µM (inactive)
- GI50 [49]: 18.9 µM (inactive)
- GI50 [50]: 14 µM (inactive)
- GI50 [51]: 5.24 µM (inactive)
- GI50 [52]: 5.96 µM (inactive)
- GI50 [53]: 10.3 µM (inactive)
- GI50 [54]: 15.5 µM (inactive)
- GI50 [55]: 15.9 µM (inactive)
- GI50 [56]: 6.97 µM (inactive)
- GI50 [57]: 11.2 µM
- GI50 [58]: > 37.5 µM (inactive)
- GI50 [59]: > 41.8 µM (inactive)
